Assay type in all cases: cell-based
One test has as its system Bacillus cereus IFO 3001. The experiment in a line: MIC, Bacillus cereus IFO 3001 (BC). Conditions: Bacillus cereus, IFO3001, Bacillus cereus IFO 3001; read-out: MIC BC.
Test [1] relates to Klebsiella pneumoniae ATCC 10031. The experiment in a line: MIC, Klebsiella pneumoniae ATCC 10031 (KP). Conditions: ATCC10031; Klebsiella pneumoniae ATCC 10031; read-out: MIC KP.
For the next test, the system named is Bacillus subtilis. The experiment in a line: MIC, Bacillus subtilis (BS). Conditions: read-out: MIC BS.
The next test deals with Escherichia coli NIHJ. Put plainly: MIC, Escherichia coli NIHJ (EC).
The subject of test [2] is Staphylococcus aureus FDA 209P. The experiment in a line: MIC, Staphylococcus aureus FDA 209P (SA(2)). Conditions: Staphylococcus aureus, FDA209P, Staphylococcus aureus FDA 209P; read-out: MIC SA (2). The text has this: (§1) The minimum inhibitory concentrations (MIC: mcg/ml) of the erythromycin derivatives of the present invention and the control erythromycin derivative (*) as the known growth promoting agent on typical test bacteria are shown in the following Tables 1 to 5.
SA(2): Staphylococcus aureus FDA 209P

Test [3] deals with Staphylococcus aureus ATCC 6538P. The experiment in a line: MIC, Staphylococcus aureus ATCC 6538P (SA(1)). Conditions: Staphylococcus aureus, ATCC6538P, Staphylococcus aureus ATCC 6538P; read-out: MIC SA (1).
Source text: as §1
SA(1): Staphylococcus aureus ATCC 6538P

Converted amounts (≈) assume the structure as drawn.

As usually defined, the MIC is the lowest concentration that inhibits growth of the organism.

Turning to `CCC1OC(=O)C(C)C(OC2CC(C)(OC)C(O)C(C)O2)C(C)C(OC2OC(C)CC([N+](C)(C)C)C2O)C2(C)CC(C)=C(O2)C(C)C(OS(C)(=O)=O)C1(C)O` (stereo not drawn) [Compound 3], the MIC (in the test with Bacillus cereus IFO 3001; in test [1]; in the test on Bacillus subtilis; in the test on Escherichia coli NIHJ; in test [2]; in test [3]) was above 100 µg/mL each time.

For `CCC1OC(=O)C(C)C(OC2CC(C)(OC)C(O)C(C)O2)C(C)C(OC2OC(C)CC([N+](C)(C)C)C2O)C2(C)CC(C)=C(O2)C(C)C(OC(C)=O)C1(C)OC(C)=O` (stereo not drawn) [Compound 2], the MIC is 100 µg/mL in the test on Bacillus cereus IFO 3001; above 100 µg/mL in test [1]; 100 µg/mL in the test with Bacillus subtilis; above 100 µg/mL with Escherichia coli NIHJ; 100 µg/mL in test [2]; 100 µg/mL in test [3].

As for `C=CC[N+](C)(CC=C)C1CC(C)OC(OC2C(C)C(OC3CC(C)(OC)C(O)C(C)O3)C(C)C(=O)OC(CC)C(C)(O)C(O)C(C)C3=C(C)CC2(C)O3)C1O` (stereo not drawn) [Compound 43], the minimal inhibitory concentration (MIC) is above 100 µg/mL in the test with Bacillus cereus IFO 3001; above 100 µg/mL in test [1]; above 100 µg/mL in the test on Bacillus subtilis; above 100 µg/mL in the test with Escherichia coli NIHJ; 100 µg/mL in test [2]; 100 µg/mL in test [3].

Turning to `C#CC[N+](C)(CC#C)C1CC(C)OC(OC2C(C)C(OC3CC(C)(OC)C(O)C(C)O3)C(C)C(=O)OC(CC)C(C)(O)C(O)C(C)C3=C(C)CC2(C)O3)C1O` (stereo not drawn) [Compound 45], the MIC in the test with Bacillus cereus IFO 3001 was above 100 µg/mL; in test [1], above 100 µg/mL; in the test on Bacillus subtilis, above 100 µg/mL; with Escherichia coli NIHJ, above 100 µg/mL; in test [2] it was 100 µg/mL; in test [3] it was 100 µg/mL.

As for `C=CCN(CC=C)C1CC(C)OC(OC2C(C)C(OC3CC(C)(OC)C(O)C(C)O3)C(C)C(=O)OC(CC)C(C)(O)C(O)C(C)C3=C(C)CC2(C)O3)C1O` (stereo not drawn) [Compound 38], the MIC (in the test on Bacillus cereus IFO 3001; in test [1]; in the test with Bacillus subtilis; against Escherichia coli NIHJ; in test [2]; in test [3]) was above 100 µg/mL throughout.

In the case of `CCC1OC(=O)C(C)C(OC2CC(C)(OC)C(O)C(C)O2)C(C)C(OC2OC(C)CC([N+](C)(C)CCO)C2O)C2(C)CC(C)=C(O2)C(C)C(O)C1(C)O` (stereo not drawn) [Compound 15], the minimal inhibitory concentration (MIC) (in the test on Bacillus cereus IFO 3001; in test [1]; in the test with Bacillus subtilis; against Escherichia coli NIHJ; in test [2]; in test [3]) was above 100 µg/mL each time.

Regarding `CCC1OC(=O)C(C)C(OC2CC(C)(OC)C(O)C(C)O2)C(C)C(OC2OC(C)CC([N+]3(CC)CCCC3)C2O)C2(C)CC(C)=C(O2)C(C)C(O)C1(C)O` (stereo not drawn) [Compound 24], the minimum inhibitory concentration (MIC) (with Bacillus cereus IFO 3001; in test [1]; in the test with Bacillus subtilis; in the test on Escherichia coli NIHJ; in test [2]; in test [3]) was above 100 µg/mL in each case.

For the compound `C#CC[N+](C)(C)C1CC(C)OC(OC2C(C)C(OC3CC(C)(OC)C(O)C(C)O3)C(C)C(=O)OC(CC)C3(C)OB(c4ccccc4)OC3C(C)C3=C(C)CC2(C)O3)C1O` (stereo not drawn) [Compound 56], the MIC in the test with Bacillus cereus IFO 3001 was 100 µg/mL; in test [1], above 100 µg/mL; in the test with Bacillus subtilis, 50 µg/mL; against Escherichia coli NIHJ, above 100 µg/mL; in test [2], 100 µg/mL; in test [3], 50 µg/mL.

As to `CCC1OC(=O)C(C)C(OC2CC(C)(OC)C(O)C(C)O2)C(C)C(OC2OC(C)CC(N3CCCCC3)C2O)C2(C)CC(C)=C(O2)C(C)C(O)C1(C)O` (stereo not drawn) [Compound 22], the minimum inhibitory concentration (MIC) (with Bacillus cereus IFO 3001; in test [1]; with Bacillus subtilis; in the test with Escherichia coli NIHJ; in test [2]; in test [3]) was above 100 µg/mL each time.

As to `CCC1OC(=O)C(C)C(OC2CC(C)(OC)C(O)C(C)O2)C(C)C(OC2OC(C)CC(N3CCCC3)C2O)C2(C)CC(C)=C(O2)C(C)C(O)C1(C)O` (stereo not drawn) [Compound 13], the MIC (in the test with Bacillus cereus IFO 3001; in test [1]; in the test on Bacillus subtilis; against Escherichia coli NIHJ; in test [2]; in test [3]) was above 100 µg/mL throughout.

On to `CCCN(C)C1CC(C)OC(OC2C(C)C(OC3CC(C)(OC)C(O)C(C)O3)C(C)C(=O)OC(CC)C(C)(O)C(O)C(C)C3=C(C)CC2(C)O3)C1O` (stereo not drawn) [Compound 36], for which the minimum inhibitory concentration (MIC) (with Bacillus cereus IFO 3001; in test [1]; in the test on Bacillus subtilis; against Escherichia coli NIHJ; in test [2]; in test [3]) was above 100 µg/mL each time.

Regarding `C#CCN(CC#C)C1CC(C)OC(OC2C(C)C(OC3CC(C)(OC)C(O)C(C)O3)C(C)C(=O)OC(CC)C(C)(O)C(O)C(C)C3=C(C)CC2(C)O3)C1O` (stereo not drawn) [Compound 40], the minimum inhibitory concentration (MIC) (in the test with Bacillus cereus IFO 3001; in test [1]; in the test on Bacillus subtilis; in the test with Escherichia coli NIHJ; in test [2]; in test [3]) was above 100 µg/mL each time.

With `CC[C@H]1OC(=O)[C@H](C)[C@@H](O[C@H]2C[C@@](C)(OC)[C@@H](O)[C@H](C)O2)[C@H](C)[C@@H](O[C@@H]2O[C@H](C)C[C@H]([N+](C)(C)CC)[C@H]2O)[C@@]2(C)CC(C)=C(O2)[C@H](C)[C@@H](O)C1C` (stereo partly drawn) [Compound 74], the MIC in the test with Bacillus cereus IFO 3001 was 100 µg/mL; in test [1], above 100 µg/mL; with Bacillus subtilis, above 100 µg/mL; with Escherichia coli NIHJ, above 100 µg/mL; in test [2], 100 µg/mL; in test [3] it was 100 µg/mL.

Turning to `CC[C@H]1OC(=O)[C@H](C)[C@@H](O[C@H]2C[C@@](C)(OC)[C@@H](O)[C@H](C)O2)[C@H](C)[C@@H](O[C@@H]2O[C@H](C)C[C@H](N(C)C)[C@H]2O)[C@@]2(C)CC(C)C(O2)[C@H](C)[C@@H](O)[C@]1(C)O` (stereo partly drawn) [*1, reference compound], the minimum inhibitory concentration (MIC) is 12.5 µg/mL (≈ 17.4 µM) with Bacillus cereus IFO 3001; above 100 µg/mL in test [1]; 6.25 µg/mL (≈ 8.71 µM) in the test on Bacillus subtilis; above 100 µg/mL with Escherichia coli NIHJ; 12.5 µg/mL (≈ 17.4 µM) in test [2]; 12.5 µg/mL (≈ 17.4 µM) in test [3].

Take `C#CC[N+](C)(C)C1CC(C)OC(OC2C(C)C(OC3CC(C)(OC)C(O)C(C)O3)C(C)C(=O)OC(CC)C3(C)OC(C)(C)OC3C(C)C3=C(C)CC2(C)O3)C1O` (stereo not drawn) [Compound 55]: the MIC in the test on Bacillus cereus IFO 3001 was 12.5 µg/mL; in test [1], above 100 µg/mL; in the test with Bacillus subtilis, 12.5 µg/mL; with Escherichia coli NIHJ it was above 100 µg/mL; in test [2], 12.5 µg/mL; in test [3], 12.5 µg/mL.

For the compound `CCC1OC(=O)C(C)C(OC2CC(C)(OC)C(O)C(C)O2)C(C)C(OC2OC(C)CC([N+](C)(C)C)C2OC(C)=O)C2(C)CC(C)=C(O2)C(C)C(O)C1(C)O` (stereo not drawn) [Compound 7], the MIC with Bacillus cereus IFO 3001 was above 100 µg/mL; in test [1], above 100 µg/mL; in the test on Bacillus subtilis it was above 100 µg/mL; in the test with Escherichia coli NIHJ it was above 100 µg/mL; in test [2], above 100 µg/mL; in test [3] it was 100 µg/mL.

For the compound `CCC1OC(=O)C(C)C(OC2CC(C)(OC)C(O)C(C)O2)C(C)C(OC2OC(C)CC([N+](C)(CC)CC)C2O)C2(C)CC(C)=C(O2)C(C)C(O)C1(C)O` (stereo not drawn) [Compound 12], the MIC (in the test with Bacillus cereus IFO 3001; in test [1]; in the test on Bacillus subtilis; in the test with Escherichia coli NIHJ; in test [2]; in test [3]) was above 100 µg/mL each time.

`CCCC[N+](C)(C)C1CC(C)OC(OC2C(C)C(OC3CC(C)(OC)C(O)C(C)O3)C(C)C(=O)OC(CC)C(C)(O)C(O)C(C)C3=C(C)CC2(C)O3)C1O` (stereo not drawn) [Compound 49]: the MIC with Bacillus cereus IFO 3001 is above 100 µg/mL; in test [1] it was above 100 µg/mL; in the test on Bacillus subtilis, above 100 µg/mL; in the test with Escherichia coli NIHJ, above 100 µg/mL; in test [2] it was 100 µg/mL; in test [3], 100 µg/mL.

On to `CC[C@H]1OC(=O)[C@H](C)[C@@H](O[C@H]2C[C@@](C)(OC)[C@@H](O)[C@H](C)O2)[C@H](C)[C@@H](O[C@@H]2O[C@H](C)C[C@H](N(C)CC)[C@H]2O)[C@@]2(C)CC(C)C(O2)[C@H](C)[C@@H](O)[C@]1(C)O` (stereo partly drawn) [Compound 69], for which the minimal inhibitory concentration (MIC) (in the test with Bacillus cereus IFO 3001; in test [1]; with Bacillus subtilis; with Escherichia coli NIHJ; in test [2]; in test [3]) was above 100 µg/mL each time.

Regarding `CC[C@H]1OC(=O)[C@H](C)[C@@H](O[C@H]2C[C@@](C)(OC)[C@@H](O)[C@H](C)O2)[C@H](C)[C@@H](O[C@@H]2O[C@H](C)C[C@H]([N+](C)(C)CC)[C@H]2O)[C@@]2(C)CC(C)C3(O[C@@]1(C)[C@H](O)[C@H]3C)O2` (stereo partly drawn) [Compound 71], the minimal inhibitory concentration (MIC) with Bacillus cereus IFO 3001 was 100 µg/mL; in test [1], above 100 µg/mL; in the test with Bacillus subtilis it was 100 µg/mL; against Escherichia coli NIHJ, above 100 µg/mL; in test [2], above 100 µg/mL; in test [3], above 100 µg/mL.

Regarding `CCC1OC(=O)C(C)C(OC2CC(C)(OC)C(O)C(C)O2)C(C)C(OC2OC(C)CC([N+](C)(C)CC)C2O)C2(C)CC(C)=C(O2)C(C)C(O)C1(C)O` (stereo not drawn) [Compound 5], the MIC (in the test with Bacillus cereus IFO 3001; in test [1]; with Bacillus subtilis; with Escherichia coli NIHJ; in test [2]; in test [3]) was above 100 µg/mL each time.

(Values after patent US4948782A, “A method of promoting the growth of domestic animals with erythromycin derivative containing composition” (Kitasato Kenkyusho, priority 1987, dated 1990).)
